Assay results reported in ChEMBL document CHEMBL1156790, “Synthesis and structure-activity relationships of antitubercular 2-nitroimidazooxazines bearing heterocyclic side chains” (J Med Chem, 2010).
Converted amounts (≈) assume the structure as drawn.

What was measured:
Vero = assay: Cytotoxicity against african green monkey Vero cells after 72 hrs by tetrazolium dye assay; assay type: cell-based; settings: Chlorocebus sabaeus
[1] = test system: Mycobacterium tuberculosis; assay: Antimycobacterial activity against Mycobacterium tuberculosis H37Rv expressing pFCA-luxAB after 10 days by luminescence-based low-oxygen recovery assay; assay type: functional; settings: 240 h
[2] = test system: Mycobacterium tuberculosis; assay: Antimycobacterial activity against Mycobacterium tuberculosis H37Rv after 16 to 24 hrs by microplate alamar blue assay; assay type: functional
[3] = Solubility in water at pH 7 at 20 degC; assay type: physicochemical
[4] = Thermodynamic solubility in water at pH 7.4 at; assay type: physicochemical; settings: water

| SMILES | IC50 (Vero) [µM] | MIC [1] [µM] | MIC [2] [µM] | solubility [3] [µg/mL] | solubility thermodynamic [4] [µg/mL] |
| --- | --- | --- | --- | --- | --- |
| O=[N+]([O-])c1cn2c(n1)OC[C@@H](OCc1cnn(-c3ccccc3)n1)C2 | > 128 | 2.2 (≈ 0.753 µg/mL) | 0.25 (≈ 0.0856 µg/mL) |  |  |
| Cn1nc(-c2ccc(C(F)(F)F)cc2)cc1CO[C@@H]1COc2nc([N+](=O)[O-])cn2C1 | > 128 | 4.1 (≈ 1.74 µg/mL) | 0.06 (≈ 0.0254 µg/mL) |  |  |
| Cn1nc(-c2ccc(F)cc2)cc1CO[C@@H]1COc2nc([N+](=O)[O-])cn2C1 | > 128 | 4 (≈ 1.49 µg/mL) | 0.36 (≈ 0.134 µg/mL) |  |  |
| O=[N+]([O-])c1cn2c(n1)OC[C@@H](OCc1ccc(-c3cncc(F)c3)s1)C2 | > 128 | 2.3 (≈ 0.866 µg/mL) | 0.87 (≈ 0.327 µg/mL) |  |  |
| Cn1c(CO[C@@H]2COc3nc([N+](=O)[O-])cn3C2)cnc1-c1ccc(C#N)cc1 | > 128 | > 32 | 2.8 (≈ 1.07 µg/mL) |  |  |
| O=[N+]([O-])c1cn2c(n1)OC[C@@H](OCc1cnn(-c3ccc(F)cc3)c1)C2 | > 128 | 3.9 (≈ 1.4 µg/mL) | 0.8 (≈ 0.287 µg/mL) |  |  |
| O=[N+]([O-])c1cn2c(n1)OC[C@@H](OCc1ccc(-c3ccc(OC(F)F)cc3)s1)C2 | > 128 | 0.58 (≈ 0.246 µg/mL) | 0.86 (≈ 0.364 µg/mL) |  |  |
| O=[N+]([O-])c1cn2c(n1)OC[C@@H](OCc1ccc(-c3ccc(C(F)(F)F)cc3)s1)C2 | > 128 | 1 (≈ 0.425 µg/mL) | 0.16 (≈ 0.0681 µg/mL) | 0.7 (≈ 1.65 µM) |  |
| O=[N+]([O-])c1cn2c(n1)OC[C@@H](OCc1ccn(-c3ccc(C(F)(F)F)cc3)n1)C2 | > 128 | 1 (≈ 0.409 µg/mL) | 0.045 (≈ 0.0184 µg/mL) | 5.4 (≈ 13.2 µM) |  |
| O=[N+]([O-])c1cn2c(n1)OC[C@@H](OCc1nnn(-c3ccc(F)cc3)n1)C2 | > 128 | 3.4 (≈ 1.23 µg/mL) | 0.29 (≈ 0.105 µg/mL) |  |  |
| N#Cc1ccc(-c2cccc(CO[C@@H]3COc4nc([N+](=O)[O-])cn4C3)c2)cc1 | > 128 | 4.8 (≈ 1.81 µg/mL) |  |  |  |
| COc1ccc(-c2nc(CO[C@@H]3COc4nc([N+](=O)[O-])cn4C3)cs2)cc1F | > 128 | 1.7 (≈ 0.691 µg/mL) | 0.2 (≈ 0.0813 µg/mL) |  |  |
| COc1ccc(-c2ncc(CO[C@@H]3COc4nc([N+](=O)[O-])cn4C3)n2C)cc1F | > 128 | > 32 | 1.4 (≈ 0.565 µg/mL) |  |  |
| O=[N+]([O-])c1cn2c(n1)OC[C@@H](OCc1cccc(-c3ccc(F)cc3)c1)C2 | > 128 | 3.8 (≈ 1.4 µg/mL) |  | 1.8 (≈ 4.87 µM) |  |
| O=[N+]([O-])c1cn2c(n1)OC[C@@H](OCc1ccc(-c3ccc(OC(F)(F)F)cc3)cc1)C2 | > 128 | 1.3 (≈ 0.566 µg/mL) |  |  | < 0.5 |
| O=[N+]([O-])c1cn2c(n1)OC[C@@H](OCc1nnn(-c3ccccc3)n1)C2 | > 128 | 5.7 (≈ 1.96 µg/mL) | 1.2 (≈ 0.412 µg/mL) |  |  |
| O=[N+]([O-])c1cn2c(n1)OC[C@@H](OCc1cccc(-c3ccc(OC(F)(F)F)cc3)c1)C2 | > 128 | 2.2 (≈ 0.958 µg/mL) |  |  |  |
| N#Cc1ccc(-c2nc(CO[C@@H]3COc4nc([N+](=O)[O-])cn4C3)cs2)cc1 | > 128 | 3.2 (≈ 1.23 µg/mL) | 0.67 (≈ 0.257 µg/mL) |  |  |
| COc1ccc(-c2cccc(CO[C@@H]3COc4nc([N+](=O)[O-])cn4C3)c2)cc1F | > 128 | 2.2 (≈ 0.879 µg/mL) |  |  |  |
| O=[N+]([O-])c1cn2c(n1)OC[C@@H](OCc1ccc(-c3ccc(OC(F)(F)F)cc3)s1)C2 | > 128 | 2.6 (≈ 1.15 µg/mL) | 0.85 (≈ 0.375 µg/mL) |  |  |
| COc1ccc(-c2ccc(CO[C@@H]3COc4nc([N+](=O)[O-])cn4C3)s2)cn1 | > 128 | 4.5 (≈ 1.75 µg/mL) | 0.22 (≈ 0.0854 µg/mL) | 2.2 (≈ 5.66 µM) |  |
| COc1ccc(-c2nc(CO[C@@H]3COc4nc([N+](=O)[O-])cn4C3)cs2)cn1 | > 128 | 4.5 (≈ 1.75 µg/mL) | 1.4 (≈ 0.545 µg/mL) |  |  |
| O=[N+]([O-])c1cn2c(n1)OC[C@@H](OCc1csc(-c3ccc(C(F)(F)F)cc3)n1)C2 | > 128 | 3 (≈ 1.28 µg/mL) | 1.4 (≈ 0.597 µg/mL) | 2.8 (≈ 6.57 µM) |  |
| COc1ccc(-n2cc(CO[C@@H]3COc4nc([N+](=O)[O-])cn4C3)nn2)cc1F | > 128 | 8.7 (≈ 3.4 µg/mL) | 0.86 (≈ 0.336 µg/mL) |  |  |
| O=[N+]([O-])c1cn2c(n1)OC[C@@H](OCc1cc(-c3ccc(F)cc3)no1)C2 | > 128 | 1.9 (≈ 0.685 µg/mL) | 1.5 (≈ 0.54 µg/mL) |  |  |
| Cn1c(CO[C@@H]2COc3nc([N+](=O)[O-])cn3C2)cnc1-c1ccc(F)cc1 | > 128 | 31 (≈ 11.6 µg/mL) | 1.9 (≈ 0.709 µg/mL) |  |  |
| Cn1c(CO[C@@H]2COc3nc([N+](=O)[O-])cn3C2)cnc1-c1ccc(OC(F)(F)F)cc1 | > 128 | 7.4 (≈ 3.25 µg/mL) | 1.1 (≈ 0.483 µg/mL) |  |  |
| O=[N+]([O-])c1cn2c(n1)OC[C@@H](OCc1cccc(-c3ccc(C(F)(F)F)cc3)c1)C2 | > 128 | 2.9 (≈ 1.22 µg/mL) |  | 2.8 (≈ 6.68 µM) |  |
